Assay results as given in US20260373248A1, “DEGRADABLE PEPTOIDS” (Medici Therapeutics, Inc., priority 2023, published 2026).
Starred links: 1 amine or outer side, 2 acyl side, 3 side chain; linkers in the order of their positions; H or OH if unused. Non-standard residues stand in square brackets, D forms with d. Residues, ends and D or L forms follow the SMILES beside them. *: point of attachment. Gly(N-(3-decanoyloxypropyl)) = CCCCCCCCCC(=O)OCCCNCC(=O)O; N(3-lauroyloxypropyl)Gly = CCCCCCCCCCCC(=O)OCCCNCC(=O)O; N(2-decanoyloxyethyl)Gly = CCCCCCCCCC(=O)OCCNCC(=O)O; Gly(N-3-morpholinopropyl) = O=C(O)CNCCCN1CCOCC1; N(2-ethylhexyl)Gly = CCCCC(CC)CNCC(=O)O; X2 = CCCCCCC(CCCC)CN(CC(=O)[*:2])[*:1]; N(CH(CH2OH)2)Gly = O=C(O)CNC(CO)CO; NDecylGly = CCCCCCCCCCNCC(=O)O; NHexGly = CCCCCCNCC(=O)O; For = O=C*

Tests used:
[1] = Delivery vehicle size and polydispersity by dynamic light scattering; assay type: physicochemical
Summary of the method: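 LNPs made by microfluidic mixing of ethanolic peptoid/DSPC/cholesterol/DMG-PEG2000 (20:1.79:7.16:1.84 by weight) with mRNA in 10 mM citrate pH 5.0 at 1:3 by volume, then dialyzed overnight at 4 °C against tris-sucrose pH 7.4. Size and PDI read by dynamic light scattering in PBS.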

mRNA = mRNA encapsulation (modified Quant-iT RiboGreen assay); assay type: physicochemical; conditions: for mean percent encapsulation of RNA: RiboGreen, without vs with Triton X-100; for % Encapsulation: mRNA
Summary of the method: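 Peptoid nanoparticles were incubated with Triton X-100 for 10 min to release entrapped mRNA, then mixed with RiboGreen reagent and read by fluorescence (ex 485 nm/em 530 nm). Percent encapsulation was derived from the ratio of fluorescence without versus with Triton X-100.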

firefly luciferase = experiment: In vivo firefly luciferase expression after intravenous injection of fLuc mRNA delivery vehicles (IVIS imaging); design: species or system female Balb/c mice; conditions: for Total Flux: mice, 2.5 ug fLuc mRNA intravenously, 6 hours post-injection; for Total Flux (luciferase expression): fLuc mRNA, intravenous, Balb/c mice
Summary of the method: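 Female Balb/c mice (6-8 weeks) given 2.5 ug fLuc mRNA in Nutshells IV. At 6 hours, IP D-luciferin (30 mg/mL, 10 μL/g) under isoflurane; IVIS imaging 10 minutes later, then harvested organs imaged ex vivo. Read-out: total photon flux in regions of interest.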

hEPO = experiment: Quantification of hEPO in serum after IV injection of mRNA (Human EPO ELISA); assay type: in vivo; conditions: Balb/c mice, 2.5 μg mRNA IV, serum after 6 hours
Summary of the method: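 Balb/c mice received 2.5 μg mRNA encoding human EPO by IV injection; serum was collected after 6 hours. hEPO was measured by sandwich ELISA (biotin-conjugate, streptavidin-HRP, TMB, A450) against kit standards (mIU/mL) and an external standard (ng/mL), with values interpolated and corrected for dilution.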

[2] = Peptoid quantity remaining in liver by HPLC-TOF mass spectrometry; assay type: in vivo; conditions: liver homogenate
Procedure: Peptoid quantity in liver was determined via high-performance liquid chromatography coupled with time-of-flight mass spectrometer (HPLC-TOF). The entire liver was weighed, and then two sections were isolated using a provided biopsy punch for liver homogenization. Liver homogenate sample was prepared by resuspending 20 mg liver tissue in 400 μL extraction solvent (IPA/MeOH=8/2) containing an internal standard (400 pg/μL) followed by bead homogenization (45 sec per cycle for 3-4 cycles). Homogenized samples were centrifuged at 12,000 rpm for 8 min at 6 °C. The resulting supernatant was collected and stored at −20 °C for further LC analysis. 5 μL of the resulting supernatant sample from solid or liquid tissue was injected into a BEH C8 column on an Agilent 1290 Infinity II liquid chromatograph coupled with an Agilent 6230 LC-TOF system. Concentrations of peptoids were determined by a linear calibration curve (linear range:0.2-50 μg/g for solid tissue). Standard calibration curve solutions were prepared by spiking untreated liver followed by homogenization and centrifugation.

luciferase = experiment: Luciferase expression after local (intramuscular or subcutaneous) administration of mRNA; assay type: in vivo; conditions: mRNA 0.01 mpk, 6 hours; for IM Flux: intramuscular; for SC Flux: subcutaneous
Summary of the method: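 Female Balb/c mice (6-8 weeks) received fLuc mRNA in aminolipidated peptoid Nutshells at 0.01 mpk subcutaneously or intramuscularly, or 0.1 mpk intratumorally. At 6 hours, anesthetized mice were given D-luciferin IP and imaged 10 minutes later; harvested organs were also imaged and total photon flux quantified in regions of interest.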

[3] = DLS in PBS, peptoid:DSPC:Cholesterol:DMG-PEG2000 weight ratio 20:1.79:7.16:1.84, mRNA

SMILES | PDI [1, 3] | Particle Size [1, 3] [nm] | mean percent encapsulation of RNA (mRNA) [%] | % of injected dose remaining in liver [2] [%] | Particle Size ([1]; formulation recipe O3) [nm] | Particle Size ([1]; formulation recipe O5) [nm] | % Encapsulation (mRNA; formulation recipe O3) [%] | % Encapsulation (mRNA; formulation recipe O5) [%] | Particle Size ([1]; formulation recipe D22) [nm] | Particle Size ([1]; formulation recipe O8) [nm] | % Encapsulation (mRNA; formulation recipe D22) [%] | % Encapsulation (mRNA; formulation recipe O8) [%] | Total Flux (firefly luciferase) [p/s] | hEPO (hEPO) [ng/mL] | IM Flux (luciferase) [p/s] | SC Flux (luciferase) [p/s] | Total Flux (luciferase expression) (firefly luciferase; formulation recipe O3) [p/s] | Total Flux (luciferase expression) (firefly luciferase; formulation recipe O5) [p/s] | Total Flux (luciferase expression) (firefly luciferase; formulation recipe D22) [p/s] | Total Flux (luciferase expression) (firefly luciferase; formulation recipe O8) [p/s]
CCCCCCCCCCCC(=O)OCCCN(CC(=O)N(CC(N)=O)CC(CC)CCCC)C(=O)CN(CCCCCC)C(=O)CN(CC(CC)CCCC)C(=O)CN(CCCOC(=O)CCCCCCCCCCC)C(=O)CN(CCCCCC)C(=O)CNC(CO)CO (stereo not drawn) [Compound 54] (H-[N(CH(CH2OH)2)Gly][NHexGly][N(3-lauroyloxypropyl)Gly][N(2-ethylhexyl)Gly][NHexGly][N(3-lauroyloxypropyl)Gly][N(2-ethylhexyl)Gly]-NH2) | 0.141 | 126.1 | 33.5 | 8.64 | – | – | – | – | – | – | – | – | 3.53E+08 | 37.4 | 1.52E+07 | 2.18E+07 | – | – | – | –
CCCCCCCCCC(=O)OCCCN(CC(=O)N(CC(=O)N(CCCCCC)CC(=O)N(CCCOC(=O)CCCCCCCCC)CC(=O)N(CC(=O)N(CCCCCC)CC(N)=O)CC(CC)CCCC)CC(CC)CCCC)C(=O)CNC(CO)CO (stereo not drawn) [Compound 55] (H-[N(CH(CH2OH)2)Gly][Gly(N-(3-decanoyloxypropyl))][N(2-ethylhexyl)Gly][NHexGly][Gly(N-(3-decanoyloxypropyl))][N(2-ethylhexyl)Gly][NHexGly]-NH2) | 0.139 | 90.2 | 26.3 | 4.59 | – | – | – | – | – | – | – | – | 6.22E+08 | 63.1 | 5.29E+07 | 9.41E+07 | – | – | – | –
CCCCCCCCCCN(CC(=O)N(CC(=O)N(CCCOC(=O)CCCCCCCCC)CC(N)=O)CC(CC)CCCC)C(=O)CN(CC(CC)CCCC)C(=O)CN(CCCOC(=O)CCCCCCCCC)C(=O)CN(CC(CC)CCCC)C(=O)CNC(CO)CO (stereo not drawn) [Compound 58] (H-[N(CH(CH2OH)2)Gly][N(2-ethylhexyl)Gly][Gly(N-(3-decanoyloxypropyl))][N(2-ethylhexyl)Gly][NDecylGly][N(2-ethylhexyl)Gly][Gly(N-(3-decanoyloxypropyl))]-NH2) | 0.159 | 70.4 | 78.1 | −1.37 | – | 56.3 | – | 92.8 | 70.4 | 57.5 | 78.1 | 92.9 | 3.94E+09 | 386 | 5.53E+08 | 1.99E+07 | – | 5.84E+08 | 3.94E+09 | 1.02E+09
CCCCCCCCCCCC(=O)OCCCN(CC(N)=O)C(=O)CN(CC(CC)CCCC)C(=O)CN(CCCCCCCCCC)C(=O)CN(CC(CC)CCCC)C(=O)CN(CCCOC(=O)CCCCCCCCCCC)C(=O)CN(CC(CC)CCCC)C(=O)CNC(CO)CO (stereo not drawn) [Compound 59] (H-[N(CH(CH2OH)2)Gly][N(2-ethylhexyl)Gly][N(3-lauroyloxypropyl)Gly][N(2-ethylhexyl)Gly][NDecylGly][N(2-ethylhexyl)Gly][N(3-lauroyloxypropyl)Gly]-NH2) | 0.106 | 79.5 | 95.2 | −1.85 | – | – | – | – | – | – | – | – | 6.47E+08 | 112 | 6.35E+07 | 8.71E+08 | – | – | – | –
CCCCCCCCCCCC(=O)OCCCN(CC(=O)N(CC(=O)N(CC(=O)N(CCCOC(=O)CCCCCCCCCCC)CC(=O)N(CC(N)=O)CC(CC)CCCC)CC(CC)CCCC)CC(CC)CCCC)C(=O)CN(CC(CC)CCCC)C(=O)CN(C=O)CCCN1CCOCC1 (stereo not drawn) [Compound 64] (For-[Gly(N-3-morpholinopropyl)][N(2-ethylhexyl)Gly][N(3-lauroyloxypropyl)Gly][N(2-ethylhexyl)Gly][N(2-ethylhexyl)Gly][N(3-lauroyloxypropyl)Gly][N(2-ethylhexyl)Gly]-NH2) | 0.096 | 77.8 | 67.3 | 5.30 | – | – | – | – | – | – | – | – | 6.54E+08 | 87 | 1.42E+08 | 1.33E+08 | – | – | – | –
CCCCCCCCCCCC(=O)OCCN(CC(=O)N(CCOC(=O)CCCCCCCCCCC)CC(=O)N(CC(=O)N(CCOC(=O)CCCCCCCCCCC)CC(=O)N(CCOC(=O)CCCCCCCCCCC)CC(=O)N(CC(N)=O)CC(CC)CCCC)CC(CC)CCCC)C(=O)CN(C=O)CCCN1CCOCC1 (stereo not drawn) [Compound 65] | 0.248 | 91.4 | 39.1 | 14.67 | – | – | – | – | – | – | – | – | 8.68E+08 | 77.7 | 8.99E+08 | 2.00E+08 | – | – | – | –

Now from value to compound, other results behind:

PDI [1, 3] | Particle Size [1, 3] [nm] | mean percent encapsulation of RNA (mRNA) [%] | % of injected dose remaining in liver [2] [%] | Particle Size ([1]; formulation recipe O3) [nm] | Particle Size ([1]; formulation recipe O5) [nm] | % Encapsulation (mRNA; formulation recipe O3) [%] | % Encapsulation (mRNA; formulation recipe O5) [%] | Particle Size ([1]; formulation recipe D22) [nm] | Particle Size ([1]; formulation recipe O8) [nm] | % Encapsulation (mRNA; formulation recipe D22) [%] | % Encapsulation (mRNA; formulation recipe O8) [%] | SMILES | Total Flux (firefly luciferase) [p/s] | hEPO (hEPO) [ng/mL] | IM Flux (luciferase) [p/s] | SC Flux (luciferase) [p/s] | Total Flux (luciferase expression) (firefly luciferase; formulation recipe O3) [p/s] | Total Flux (luciferase expression) (firefly luciferase; formulation recipe O5) [p/s] | Total Flux (luciferase expression) (firefly luciferase; formulation recipe D22) [p/s] | Total Flux (luciferase expression) (firefly luciferase; formulation recipe O8) [p/s]
0.153 | 88.5 | 36.0 | 0.13 | – | – | – | – | – | – | – | – | CCCCCCCCCC(=O)OCCCN(CC(N)=O)C(=O)CN(CC(CC)CCCC)C(=O)CN(CCCOC(=O)CCCCCCCCC)C(=O)CN(CCCOC(=O)CCCCCCCCC)C(=O)CN(CC(CC)CCCC)C(=O)CN(CCCOC(=O)CCCCCCCCC)C(=O)CNC(CO)CO (stereo not drawn) [Compound 53] (H-[N(CH(CH2OH)2)Gly][Gly(N-(3-decanoyloxypropyl))][N(2-ethylhexyl)Gly][Gly(N-(3-decanoyloxypropyl))][Gly(N-(3-decanoyloxypropyl))][N(2-ethylhexyl)Gly][Gly(N-(3-decanoyloxypropyl))]-NH2) | 4.46E+08 | 71.6 | 5.34E+08 | 2.78E+08 | – | – | – | –
0.234 | 102.4 | 23.8 | 24.83 | 57.9 | 62.4 | 86.9 | 89.6 | – | – | – | – | CCCCCCCCCC(=O)OCCN(CC(N)=O)C(=O)CN(CC(CC)CCCC)C(=O)CN(CCOC(=O)CCCCCCCCC)C(=O)CN(CCOC(=O)CCCCCCCCC)C(=O)CN(CC(CC)CCCC)C(=O)CN(CCOC(=O)CCCCCCCCC)C(=O)CNC(CO)CO (stereo not drawn) [Compound 56] (H-[N(CH(CH2OH)2)Gly][N(2-decanoyloxyethyl)Gly][N(2-ethylhexyl)Gly][N(2-decanoyloxyethyl)Gly][N(2-decanoyloxyethyl)Gly][N(2-ethylhexyl)Gly][N(2-decanoyloxyethyl)Gly]-NH2) | 2.42E+09 | 551 | 5.78E+07 | 8.24E+07 | 5.66E+08 | 6.97E+08 | – | –
0.081 | 75.4 | 95.1 | 13.39 | – | – | – | – | – | – | – | – | CCCCCCCCCC(=O)OCCCN(CC(=O)N(CC(=O)N(CC(=O)N(CCCOC(=O)CCCCCCCCC)CC(=O)N(CC(N)=O)CC(CCCC)CCCCCC)CC(CC)CCCC)CC(CCCC)CCCCCC)C(=O)CN(CC(CC)CCCC)C(=O)CNC(CO)CO (stereo not drawn) [Compound 61] (H-[N(CH(CH2OH)2)Gly][N(2-ethylhexyl)Gly][Gly(N-(3-decanoyloxypropyl))][X2][N(2-ethylhexyl)Gly][Gly(N-(3-decanoyloxypropyl))][X2]-NH2) | 1.96E+09 | 428 | 1.45E+08 | 1.99E+08 | – | – | – | –
